# Data as given in paper PMC4538536, “In Silico-Based High-Throughput Screen for Discovery of Novel Combinations for Tuberculosis Treatment” (Antimicrobial Agents and Chemotherapy, 2015).
# Where two headings read alike, the source gives them in different places.
# Columns and labels:
# M. tuberculosis H37Rv [1] = test: MIC determination, resazurin-based microplate assay; assay type: cell-based, Mycobacterium tuberculosis; settings: Mycobacterium tuberculosis, single drug
# M. tuberculosis H37Rv [2] = test: In vitro bactericidal-effect analysis (CFU enumeration of checkerboard wells); assay type: cell-based, Mycobacterium tuberculosis; settings: single drug at its MIC (FIC of 1); positive = reduction in CFU
# Protocol: For determining the extent of the bactericidal effect, sample wells which remained blue in the resazurin microtiter assay (REMA) and whose ΣFICs were within the synergistic-to-additive range (<0.7 for doublets and <1.5 for triplets) were plated on Middlebrook 7H10 agar medium and incubated at 37°C for 21 to 28 days, following which bacterial colonies were enumerated to obtain the net reduction in CFU in comparison to the counts for the untreated controls at the start of drug testing, as well as to that achieved when M. tuberculosis was exposed to each drug alone.
# [3] = In vivo pharmacokinetics in infected mice (plasma, LC-MS/MS); design: species or system BALB/c mice; settings: mouse; for AUC(0-t) / Cmax: po, steady state, infected mice
# Protocol: The drugs were formulated in 0.5% hydroxypropyl methyl cellulose (HPMC)–0.1% Tween 80 suspensions as 3- or 4-drug combinations. Formulations were prepared by weighing and adding each compound to the bottle, according to the design. Formulation vehicle was added, and the suspension was stirred overnight. Only uniform suspensions were used, while those that precipitated were abandoned. Formulations were prepared every week, and compound stability was estimated at the end of the week. Pharmacokinetics (PK) analysis was performed on infected mice on the 20th day of dosing. Blood samples were collected from each mouse at 0.5, 2, 4, 6, and 24 h after compound administration. Blood samples of about 30 μl were collected from mice in all groups by serial sampling via the saphenous vein into Microvette CB300 tubes (Starstedt, Germany) coated with EDTA, and plasma (10 μl) was separated following centrifugation. Plasma samples were stored at –20°C until analysis using liquid chromatography-tandem mass spectrometry (LC-MS/MS).
# A 1-mg/ml stock solution of each compound was prepared in dimethyl sulfoxide (DMSO) for all of the analytes except PZA and LZD, for which the stock solution was 10 mg/ml in DMSO, and RIF, for which the stock solution was prepared in 50% acetonitrile in water. Three different sets of calibration standard (CS) combinations were prepared by 2-fold dilution of the stock solutions. CS set 1 contained analytes CLO, BDQ, PA824, PZA, and SQ109, CS set 2 contained analytes BTZ043, MXF, THI, EMB, and PZA, and CS set 3 contained LZD, INH, RIF, and PZA. A 16-point calibration curve was utilized for all analytes, and the standard curves ranged from 0.0005 to 20 μg/ml except for PZA and LZD, for which the standard curve range was 0.006 to 200 μg/ml. Plasma samples were precipitated by adding chilled acetonitrile (1:10, vol/vol) containing carbamazepine as an internal standard (10 ng/ml). Samples were vortexed and then centrifuged at 4,000 rpm for 30 min at 10°C. The resulting supernatant was mixed with the mobile phase (50% acetonitrile in water with 0.1% formic acid). Five microliters of the sample was injected on to a liquid chromatographic system (Acquity ultraperformance liquid chromatography [UPLC] system, Waters, Milford, MA) coupled to a triple-quadrupole mass spectrometer (Xevo TQ-S; Waters, Milford, MA). Samples were separated on an LC column (ACE 3 C18, 50 by 4.6 mm, 3 μm particle size; Advanced Chromatography Technologies, Aberdeen, Scotland) by isocratic elution with 40 parts of 20 mM ammonium formate containing 0.1% (vol/vol) formic acid and 60 parts of acetonitrile at a flow rate of 0.5 ml/min with a run time of 4 min. Samples were acquired in positive ion mode and detected by multiple reaction monitoring (MRM). The concentrations of the analyte were determined from a standard curve obtained by plotting known concentrations of the analyte against peak area ratios (analyte/internal standard peak response).
# PK analyses of the plasma concentration-time relationships were performed with Phoenix software (version 6.2; Pharsight, USA). A noncompartmental analysis program, model 200, was used to calculate PK parameters. The maximum concentration of drug in plasma (Cmax), time to Cmax (Tmax), elimination half-life (t1/2), and area under the concentration-time curve (AUC) from time zero to infinity (AUC0–∞) were estimated. AUC was computed using the trapezoidal rule (linear up and log down), and the AUC0–∞ was considered only when the extrapolated AUC was not more than 20% of the original value. A minimum of three sample points in the terminal slope were used to calculate half-life.
# [4] = in vivo, 25 mg/kg; cited from earlier work
# [5] = BALB/c, plasma, 25 mg/kg, Group 5 triplet EMB 100/BDQ 25/SQ109 25 mg/kg oral, read-out: AUC0-24 in Triplet
# [6] = BALB/c, plasma, 25 mg/kg, Group 5 triplet EMB 100/BDQ 25/SQ109 25 mg/kg oral, read-out: Cmax in Triplet
# [7] = BALB/c, plasma, 50 mg/kg, Group 2 triplet SQ109 25/BDQ 25/PA824 50 mg/kg oral, read-out: AUC0-24 in Triplet
# [8] = BALB/c, plasma, 50 mg/kg, Group 2 triplet SQ109 25/BDQ 25/PA824 50 mg/kg oral, read-out: Cmax in Triplet
# [9] = BALB/c, plasma, 150 mg/kg, Group 2 quartet SQ109 25/BDQ 25/PA824 50/PZA 150 mg/kg oral, read-out: AUC0-24 in Quartet
# [10] = BALB/c, plasma, 150 mg/kg, Group 2 quartet SQ109 25/BDQ 25/PA824 50/PZA 150 mg/kg oral, read-out: Cmax in Quartet
# [11] = BALB/c, plasma, 150 mg/kg, Group 5 quartet EMB 100/BDQ 25/SQ109 25/PZA 150 mg/kg oral, read-out: AUC0-24 in Quartet
# [12] = BALB/c, plasma, 150 mg/kg, Group 5 quartet EMB 100/BDQ 25/SQ109 25/PZA 150 mg/kg oral, read-out: Cmax in Quartet
structure (smiles),measurement,setting,value
CC(C)=CCC/C(C)=C/CNCCNC1C2CC3CC(C2)CC1C3 (centres unmarked) [SQ109],MIC,M. tuberculosis H37Rv [1],1.18 µM
same,ΔLog10 CFU/ml at the MIC,M. tuberculosis H37Rv [2],1.40 Log10 CFU/ml
same,AUC,"[3]; BALB/c, plasma, oral, SQ109 25 mg/kg, EMB 100 mg/kg, in 3- and 4-drug combinations, read-out: observed AUC in combinations",2000 to 8900 ng·h/mL
same,AUC(0-t),[3]; [5],7800 ± 4900 ng·h/mL
same,Cmax,[3]; [6],5500 ± 5100 ng/mL
same,AUC(0-t),"[3]; BALB/c, plasma, 25 mg/kg, Group 6 triplet BTZ043 37.5/THI 800/SQ109 25 mg/kg oral, read-out: AUC0-24 in Triplet",3100 ± 300 ng·h/mL
same,Cmax,"[3]; BALB/c, plasma, 25 mg/kg, Group 6 triplet BTZ043 37.5/THI 800/SQ109 25 mg/kg oral, read-out: Cmax in Triplet",900 ± 500 ng/mL
same,AUC(0-t),[3]; [7],8900 ± 3700 ng·h/mL
same,Cmax,[3]; [8],5200 ± 2700 ng/mL
same,AUC(0-t),"[3]; BALB/c, plasma, 130 mg/kg, Group 9 triplet EMB 100/SQ109 25/LZD 130 mg/kg oral, read-out: AUC0-24 in Triplet",4700 ± 1400 ng·h/mL
same,Cmax,"[3]; BALB/c, plasma, 130 mg/kg, Group 9 triplet EMB 100/SQ109 25/LZD 130 mg/kg oral, read-out: Cmax in Triplet",900 ± 400 ng/mL
same,AUC(0-t),[3]; [9],5100 ± 800 ng·h/mL
same,Cmax,[3]; [10],3500 ± 1400 ng/mL
same,AUC(0-t),"[3]; BALB/c, plasma, 150 mg/kg, Group 3 quartet BTZ043 37.5/SQ109 25/MXF 200/PZA 150 mg/kg oral, read-out: AUC0-24 in Quartet",1800 ± 400 ng·h/mL
same,Cmax,"[3]; BALB/c, plasma, 150 mg/kg, Group 3 quartet BTZ043 37.5/SQ109 25/MXF 200/PZA 150 mg/kg oral, read-out: Cmax in Quartet",500 ± 200 ng/mL
same,AUC(0-t),[3]; [11],4900 ± 100 ng·h/mL
same,Cmax,[3]; [12],2700 ± 500 ng/mL
same,AUC(0-t),"[3]; BALB/c, plasma, 150 mg/kg, Group 6 quartet BTZ043 37.5/THI 800/SQ109 25/PZA 150 mg/kg oral, read-out: AUC0-24 in Quartet",4900 ± 2200 ng·h/mL
same,Cmax,"[3]; BALB/c, plasma, 150 mg/kg, Group 6 quartet BTZ043 37.5/THI 800/SQ109 25/PZA 150 mg/kg oral, read-out: Cmax in Quartet",3100 ± 2800 ng/mL
same,AUC(0-t),"[3]; BALB/c, plasma, 150 mg/kg, Group 9 quartet EMB 100/SQ109 25/LZD 130/PZA 150 mg/kg oral, read-out: AUC0-24 in Quartet",7600 ± 3600 ng·h/mL
same,Cmax,"[3]; BALB/c, plasma, 150 mg/kg, Group 9 quartet EMB 100/SQ109 25/LZD 130/PZA 150 mg/kg oral, read-out: Cmax in Quartet",3500 ± 3100 ng/mL
same,AUC(0-t),"[3]; BALB/c, plasma, 200 mg/kg, Group 3 triplet BTZ043 37.5/SQ109 25/MXF 200 mg/kg oral, read-out: AUC0-24 in Triplet",2100 ± 800 ng·h/mL
same,Cmax,"[3]; BALB/c, plasma, 200 mg/kg, Group 3 triplet BTZ043 37.5/SQ109 25/MXF 200 mg/kg oral, read-out: Cmax in Triplet",700 ± 500 ng/mL
same,plasma exposure in combination compared with individual (reported) exposure,[3]; in vivo,higher
same,reported AUC,[4],250 ng·h/mL
COc1nc2ccc(Br)cc2cc1[C@@H](c1ccccc1)[C@@](O)(CCN(C)C)c1cccc2ccccc12 [Bedaquiline],MIC,M. tuberculosis H37Rv [1],0.35 µM
same,ΔLog10 CFU/ml at the MIC,M. tuberculosis H37Rv [2],0.02 Log10 CFU/ml
same,AUC(0-t),[3]; [5],22200 ± 1600 ng·h/mL
same,Cmax,[3]; [6],2000 ± 600 ng/mL
same,AUC(0-t),"[3]; BALB/c, plasma, 50 mg/kg, Group 1 triplet CFZ 20/BDQ 25/PA824 50 mg/kg oral, read-out: AUC0-24 in Triplet",21000 ± 1700 ng·h/mL
same,Cmax,"[3]; BALB/c, plasma, 50 mg/kg, Group 1 triplet CFZ 20/BDQ 25/PA824 50 mg/kg oral, read-out: Cmax in Triplet",1600 ± 100 ng/mL
same,AUC(0-t),[3]; [7],34900 ± 5800 ng·h/mL
same,Cmax,[3]; [8],3600 ± 2800 ng/mL
same,AUC(0-t),"[3]; BALB/c, plasma, 100 mg/kg, Group 8 triplet PA824 50/BDQ 25/EMB 100 mg/kg oral, read-out: AUC0-24 in Triplet",43300 ± 6000 ng·h/mL
same,Cmax,"[3]; BALB/c, plasma, 100 mg/kg, Group 8 triplet PA824 50/BDQ 25/EMB 100 mg/kg oral, read-out: Cmax in Triplet",3100 ± 200 ng/mL
same,AUC(0-t),"[3]; BALB/c, plasma, 150 mg/kg, Group 1 quartet CFZ 20/BDQ 25/PA824 50/PZA 150 mg/kg oral, read-out: AUC0-24 in Quartet",30900 ± 5200 ng·h/mL
same,Cmax,"[3]; BALB/c, plasma, 150 mg/kg, Group 1 quartet CFZ 20/BDQ 25/PA824 50/PZA 150 mg/kg oral, read-out: Cmax in Quartet",2600 ± 500 ng/mL
same,AUC(0-t),[3]; [9],31400 ± 5400 ng·h/mL
same,Cmax,[3]; [10],2300 ± 500 ng/mL
same,AUC(0-t),[3]; [11],21500 ± 1600 ng·h/mL
same,Cmax,[3]; [12],1700 ± 700 ng/mL
same,AUC(0-t),"[3]; BALB/c, plasma, 150 mg/kg, Group 7 quartet PA824 50/BDQ 25/MXF 400/PZA 150 mg/kg oral, read-out: AUC0-24 in Quartet",24600 ± 2900 ng·h/mL
same,Cmax,"[3]; BALB/c, plasma, 150 mg/kg, Group 7 quartet PA824 50/BDQ 25/MXF 400/PZA 150 mg/kg oral, read-out: Cmax in Quartet",4500 ± 1300 ng/mL
same,AUC(0-t),"[3]; BALB/c, plasma, 150 mg/kg, Group 8 quartet PA824 50/BDQ 25/EMB 100/PZA 150 mg/kg oral, read-out: AUC0-24 in Quartet",50700 ± 8900 ng·h/mL
same,Cmax,"[3]; BALB/c, plasma, 150 mg/kg, Group 8 quartet PA824 50/BDQ 25/EMB 100/PZA 150 mg/kg oral, read-out: Cmax in Quartet",4200 ± 1500 ng/mL
same,AUC(0-t),"[3]; BALB/c, plasma, 400 mg/kg, Group 7 triplet PA824 50/BDQ 25/MXF 400 mg/kg oral, read-out: AUC0-24 in Triplet",63200 ± 16700 ng·h/mL
same,Cmax,"[3]; BALB/c, plasma, 400 mg/kg, Group 7 triplet PA824 50/BDQ 25/MXF 400 mg/kg oral, read-out: Cmax in Triplet",3600 ± 100 ng/mL
